# From patent US6299861A, “Ipratropium bromide enantiomer with prolonged duration of effect” (Boehringer Ingelheim KG, priority 1995, dated 2001)
# Test system: acetylcholine-induced bronchospasm
# Test: Inhibition of acetylcholine-induced bronchospasm in the anaesthetised dog after administration by inhalation
# Settings: aerosol, FIG. 1; for peak inhibition of acetylcholine-induced bronchospasm: 5 μg L-(-)-enantiomer (curve B) or 10 μg racemate (curve A); for time at which peak inhibition of bronchospasm is reached / time until inhibition of bronchospasm has fallen back to initial/starting level: 5 μg L-(-)-enantiomer or 10 μg racemate
# Description: 5 μg of the pure L-(-)-enantiomer and, accordingly, 10 μg of the racemate were administered.
Structure (SMILES),peak inhibition of acetylcholine-induced bronchospasm,time at which peak inhibition of bronchospasm is reached,time until inhibition of bronchospasm has fallen back to initial/starting level [min]
"CC(C)[N+]1(C)C2CCC1CC(OC(=O)C(CO)c1ccccc1)C2 (single isomer, unassigned) [BIIH 150 BR, (endo, syn)-(-)-3-(3-hydroxy-l-oxo-2-phenylpropoxy)-8-methyl-8-(1-methylethyl)-8-azoniabicyclo [3,2,1]octane]",60%,about 10 minutes,180
CC(C)[N+]1(C)C2CCC1CC(OC(=O)C(CO)c1ccccc1)C2 (stereo not drawn) [Ipratropium bromide],about 55%,about 10 minutes,60
